Experimental data as given in patent publication US20260242340A1, “COMPOUNDS AND METHODS FOR TREATING PROTEIN AGGREGATION DISEASES” (ACELOT, INC., priority 2023, published 2026).

Target: T1, amyloid beta peptide 42 (Aβ42) protein aggregates (Homo sapiens, UniProt P05067)
T1 construct: amyloid beta peptide 42 (Aβ42) protein aggregates
Experiment: Atomic force microscopy (AFM) of amyloid beta peptide protein aggregation
Assay type: biochemical
Conditions: pre-incubated 10 μM Aβ42, 1:1 compound:Aβ42 ratio, 60 minutes after compound addition
Experimental: Atomic force microscopy (AFM) was utilized to study the effect of compound 1 on the formation of larger scale amyloid beta peptide 42 (Aβ42) protein aggregates and to determine the effect on pre-formed aggregates and fibrils. Amyloid beta peptide 42 protein aggregates are a major component of the amyloid plaques found in the brains of people with Alzheimer's disease. A 50 μL aliquot of 10 μM Aβ42 solution in 10 mM ammonium acetate was removed and drop-cast onto a mica disc, dried at ambient conditions in a desiccator, and imaged. It took approximately 5 min to prepare the peptide and for the disc to dry, making it the earliest time Aβ42 aggregation can be observed. After 5 min incubation, large globular aggregates formed but few fibrils were observed (FIG. 1A). After 60 min, there was a clear trend toward higher fibril content and larger oligomers. Thus, FIG. 1A represents a control, showing Aβ42 aggregation without the addition of any compound causing Aβ42 aggregation disruption.
Compound 1 was added to the same solution of pre-incubated Aβ42 in a 1:1 compound:Aβ42 ratio. The AFM image shown in FIG. 1B was taken at 60 minutes after compound 1 addition.

T1 sequence (P05067 672-713 limits assumed): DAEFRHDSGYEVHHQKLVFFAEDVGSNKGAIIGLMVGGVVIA

**Q.** Which “Aβ42 protein aggregation (AFM image, FIG. 1B)” value does the source give for `CC(=O)Nc1ccc2c(c1)CCN(CCc1cccc(Cl)c1)C2` [Compound 1] here?
**A.** The value was “dramatic reduction”.
